Experiment: gradient 5% acetonitrile 3 min, to 50% in 2 min, to 85% in 15 min, held 3 min, 100 µL/min
Details: column: Zorbax Extend-C18 2.1 x 50 mm; eluents: water / acetonitrile, 0.1% formic acid
Procedure, shortened: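 Retention times of pure standards were taken from adduct peaks that were selected by computer and manually inspected. Over 3 months, mixtures of ~100 molecules were run by HPLC–quadrupole time-of-flight mass spectrometry in positive and negative ionization mode. The Zorbax Extend-C18 column (2.1 × 50 mm, 1.8 μm) ran at 100 μL/min in water and acetonitrile, each containing 0.1% formic acid, with 40 μL dead volume and 900 μL dwell volume.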

| Compound | RP-LC retention time [s] |
| --- | --- |
| COCCN1C(=O)CS(=O)C12CCN(C(=O)Nc1ccc3c(c1)OCCO3)CC2 (stereo not given) | 608 |
| Cn1c(=O)n(C)c2cc(S(=O)(=O)c3ccc(F)cc3)c(NC(=O)Cc3cccc(F)c3)cc21 | 873 |
| CCC(C)OC(=O)C1=C(C)NC(=O)NC1c1ccc(OC)c(O)c1 (stereo not given) | 693 |
| CCN(CC)CCNC(=O)c1cc2n(n1)CCCN(Cc1ccc(F)cc1)C2=O | 556 |
| COCCN1CCC(N2CCCN(C(=O)C3COc4ccccc4O3)CC2)C1=O (stereo not given) | 560 |
| CCOC(=O)c1noc2ncnc(N(CCN(C)C)Cc3ccccc3)c12 | 656 |
| COc1cccc(NC(=O)NCC(c2cccnc2)c2c[nH]c3ccccc23)c1 (stereo not given) | 662 |
| O=C(c1c(F)cccc1F)N1CCN=C1SCc1cccnc1 | 582 |
| Cn1cc(C2=CCN(S(=O)(=O)c3ccccc3F)CC2)c2cccnc21 | 944 |
| CS(=O)(=O)N(C1CCOCC1)C1CN(C(=O)CCc2c[nH]c3ccccc23)C1 | 678 |
| Cn1cc(C(=O)NCc2ccc3c(c2)OCO3)c(S(=O)(=O)N2CCCCC2)n1 | 854 |
| CCN1CCn2c(nc3cc(C(=O)NCc4ccc(OC(C)C)cc4)ccc32)C1=O | 726 |
| CCS(=O)(=O)N1CCCc2cc(C(=O)NCC(C)C)ccc21 | 808 |
| COc1ccc(-n2c(=O)c(C(=O)NCc3ccco3)c(O)c3cccnc32)cc1 | 1050 |
| COCCNC(=O)c1ccc2nc(CCc3ccc(NC(C)=O)cc3)[nH]c2c1 | 573 |
| O=C(NCCCN1CCOCC1)c1cc(-c2ccccn2)nc2ccccc12 | 592 |
| CCCC(=O)N1CCCC(c2nc(CNC(=O)C3CCC3)cs2)C1 (stereo not given) | 694 |
| CCn1cc(S(=O)(=O)N2[C@H]3CC[C@@H]2c2cnc(-c4ccc(F)cc4)nc2C3)cn1 | 900 |
| CN1C2CC(OC(=O)[C@H](CO)c3ccccc3)CC1C1OC12 (stereo not given in full) | 581 |
| CC(C)c1ccc(NC(=O)C2CC(=O)N(c3cccc(NC(=O)C4CCC4)c3)C2)cc1 (stereo not given) | 929 |
| COCCOCc1nc(C2CCCN2C(=O)c2ccoc2)no1 (stereo not given) | 656 |
| COc1cc(NC(=O)NC2COc3ccccc3C2)cc(OC)c1OC (stereo not given) | 773 |
| CCCc1ccc(S(=O)(=O)N2CCC3(CC2)CN(C)CC3c2nnc(CC)o2)cc1 (stereo not given) | 692 |
| Cc1noc2nc(CCC(=O)N3CCc4ccccc43)nc(N3CCCCCC3)c12 | 1060 |
| Cn1nc(C(=O)NCC2CCOCC2)c2ccccc21 | 697 |
| O=C(Cc1csc2nc(-c3ccccc3)cn12)NCCCc1ccccc1 | 841 |
| CCOC(=O)c1c(C)[nH]c(C(=O)N2CCCC(C(=O)NC3CCCCC3)C2)c1C (stereo not given) | 838 |
| CC(C)NC(=O)C1CCCN(c2nc3ncn(CC(=O)NC4CCCCC4)c(=O)c3s2)C1 (stereo not given) | 666 |

| Compound | RP-LC retention time [s] |
| --- | --- |
| COCc1cc(=O)n2c(n1)N(Cc1ccccc1F)CC2 | 660 |
| COc1ccc(OCC(=O)N2CCN(c3cc(C(C)C)n4cnnc4n3)CC2)cc1 | 619 |
| O=C(C1CCN(c2nc3ccsc3c(=O)n2-c2ccccc2)CC1)N1CCN(c2ccccc2)CC1 | 917 |
| COCCN1CC(CO)C2(CCN(Cc3ccc(Cl)cc3F)CC2)C1 (stereo not given) | 538 |
| Cc1cnc(-c2ccccc2)n1C1CCN(S(=O)(=O)Cc2ccccc2)CC1 | 686 |
| O=C1/C(=C/c2cc(Br)cc3c2OCOC3)Oc2cc(OC(=O)C3CC3)ccc21 | 1200 |
| Cc1nc(C2(C)CCN(S(=O)(=O)c3ccccc3C(F)(F)F)CC2)no1 | 963 |
| O=C(CCc1c(-c2ccccc2)nc2ccccn12)Nc1ccc(F)cc1F | 666 |
| CCC(c1cccs1)N1C(=O)[C@H]2CN(S(=O)(=O)Cc3ccccc3F)C[C@H]2C1=O (stereo not given in full) | 1000 |
| CCC(=O)n1nc(-c2ccccc2Cl)nc1N | 837 |
| CCC(C(=O)N1CCC(N2CCCCC2)CC1)n1nc(C)c2sc3ccccc3c2c1=O (stereo not given) | 676 |
| CN(CC1(C)CCOCC1)S(=O)(=O)c1ccc(F)c(F)c1 | 910 |
| CC(C)(C)c1ccc(OCC(=O)Nc2ccc(CC(=O)N3CCOCC3)cc2)cc1 | 870 |
| Cc1ccc(C(=O)N2C[C@@H](C)[C@H](c3nc(C)no3)C2)cn1 | 593 |
| Cc1ccc(C2Cn3nnc(C(=O)NC4CCCCC4)c3CO2)cc1 (stereo not given) | 1050 |
| CC(C)C(=O)N1CCC2(C1)c1nc[nH]c1CCN2CC1CCCCC1 (stereo not given) | 608 |
| CSc1cccc(NC(=O)Cn2c(N3CCC(C)CC3)nc(C)cc2=O)c1 | 765 |
| CCS(=O)(=O)N1CCCc2cc(C(=O)NC3CCCCCC3)ccc21 | 956 |
| CCc1c(C(=O)O)nnn1Cc1ccccc1C | 728 |
| Cc1ccc(-n2cc(C(=O)OCc3ccco3)c3ccccc3c2=O)cc1 | 1170 |
| Cc1sc(NC(=O)C2CCCO2)nc1-c1ccc2c(c1)NC(=O)CO2 (stereo not given) | 732 |
| CN1CCN(C(=O)c2ccc(-c3nnc4ccc(NC(=O)C5CCC5)cn34)cc2)CC1 | 587 |
| O=C1N(CN2CCN(c3ccccn3)CC2)c2ccccc2C12OCCCO2 | 572 |
| Cc1ccc(S(=O)(=O)N2C[C@@H](F)C[C@H]2C(=O)N2CCc3ccccc3C2)c(C)c1 | 992 |
| CN1C(=O)[C@H]2CN(Cc3cc(F)cc(F)c3)C[C@H]2C1=O | 610 |
| Cc1cc(C)n(-c2ccnc(NCCC3=CCCCC3)n2)n1 | 975 |
| O=C(CN1C(=O)CN(C(=O)Nc2ccccc2)c2ccccc21)N1CCCc2ccccc21 | 940 |

Second part, the compound after the results:

| RP-LC retention time [s] | Compound |
| --- | --- |
| 750 | O=C(Nc1c(-c2ccc(F)cc2)nc2ccccn12)c1cccc(Cl)c1 |
| 922 | Cc1ccc(C)c(C(=O)Nc2ccc3c(c2)Sc2ncccc2C(=O)N3C(C)C)c1 |
| 743 | CCc1nnc(-c2cccn2CC(=O)NCc2ccc3c(c2)OCO3)o1 |
| 854 | CCn1ccc2oc(C)c(C(=O)N3CCN(c4ccc(Cl)cc4)CC3)c2c1=O |
| 680 | Cc1ccc(C(=O)Nc2ccc(-c3nnc4n3CCCC4)cc2)s1 |
| 912 | O=C(NCc1ccco1)Nc1cccc(-c2noc(C3CCC3)n2)c1 |
| 819 | COc1ccc(C(=O)N2CCC3(CC2)N=C(c2ccc(Cl)cc2)NO3)cc1F |
| 594 | Cc1noc([C@@H]2CN(Cc3cc(Cl)ccc3F)C[C@H]2CO)n1 |
| 1010 | O=C(c1cccc(Br)c1)N1CCc2nc(-c3ccc(F)cc3)ncc2C1 |
| 754 | COC(=O)c1cccc(Nc2c(-c3ccc(N4CCOCC4)cc3)nc3cnccn23)c1 |
| 935 | C[C@@H]1CN(C(=O)c2ccsc2)C[C@H]1c1nc(-c2ccccc2)no1 |
| 616 | CN(C)c1ccc(-c2nc3cnccn3c2Nc2ccc(C(=O)O)cc2)cc1 |
| 600 | Cc1cccc(NC(=O)Cc2cn3cc(F)ccc3n2)c1C |
| 895 | Cc1noc(-c2cccnc2SCC(=O)Nc2cccc(Br)c2)n1 |
| 750 | Cc1nc(NC(=O)c2ccc(Cl)cc2)nc2cc3c(cc12)OCO3 |
| 1050 | Cc1cc(OCC(=O)NCc2cccs2)nc(-c2ccc(Cl)cc2)n1 |
| 728 | CNC(=O)CCc1nc2ccccc2n(CC(=O)N2CCOc3ccc(C)cc32)c1=O |
| 808 | Cc1ccc(C(=O)N2CCN(c3cc(-c4cccs4)[nH]n3)CC2)cc1C |

| RP-LC retention time [s] | Compound |
| --- | --- |
| 789 | O=C(c1cc(Sc2cccc(Cl)c2)nc2ccccc12)N1CCN(c2ccccn2)CC1 |
| 879 | COC(=O)C1=CN(c2cccc(Cl)c2)c2ccccc2S1(=O)=O |
| 977 | CCCNC(=O)c1cc(-c2ccccc2)cn1CC |
| 627 | Fc1ccccc1-c1nc(-c2ccc3c(c2)ncn3CCN2CCOCC2)no1 |
| 1210 | Cc1ccc(-c2noc(Cc3nnc(-c4cccc(Cl)c4)o3)n2)cc1C |
| 655 | COc1ccc(-c2cc(N3CCC(NC(=O)c4ccc(OC)c(OC)c4)C3)n[nH]2)cc1 (stereo not given) |
| 824 | CN(C)S(=O)(=O)c1ccc(-c2nnc(C(=O)N3CCCCC3)o2)cc1 |
| 773 | CC(C)C(=O)Nc1nnc(SCc2nnc(-c3ccc4c(c3)OCO4)o2)s1 |
| 846 | Cc1ccc(F)c(NC(=O)c2nc3nc(C)cc(C(F)F)n3n2)c1 |
| 683 | COc1ccc(CNc2c(-c3nc(C4CC4)no3)cnc3nc(C)ccc23)cc1OC |
| 925 | COC(=O)C1=CN(c2cccc(SC)c2)c2cc(F)ccc2S1(=O)=O |
| 865 | CCc1ccccc1NC(=O)Cc1c(C)n(C)c2nc(-c3ccccc3)nn2c1=O |
| 638 | COc1ccccc1NC(=O)CN1CCc2[nH]c3c(OC)ccc(Cl)c3c(=O)c2C1 |
| 852 | O=C(Cn1cc(-c2ccccc2)c2ncn(C3CC3)c(=O)c21)NCc1ccc2c(c1)OCO2 |
| 670 | Cc1ccc(-c2cc(C(=O)NCCN3CCCC3)n(C)c2)cc1 |
| 667 | Cc1ccccc1Cn1cc(-c2ccncc2)cc1C(=O)NCC1CCCO1 (stereo not given) |
| 589 | O=C(NCCc1cnc[nH]1)c1nc(Nc2ccc(F)cc2)c2ccccc2n1 |
